In brackets after ≈: the same amount, converted by molar mass. Structures can show the parent of a compound that is named as a salt.
Legend:
[1] = system: Aspergillus fumigatus; assay: Antimicrobial activity against Aspergillus fumigatus ATCC 10894; type: functional, organism-based
[2] = system: Human immunodeficiency virus 1; assay: Antiviral activity against HIV1 replication in human C8166 cells by ELISA; type: functional, organism-based; details: Human immunodeficiency virus 1, C8166
[3] = Cytotoxicity against human C8166 cells after 4 days by MTT assay; type: cell-based

Row | Structure (SMILES) | IC50 [1] [µM] | MIC [1] [µM] | EC50 [2] [µM] | CC50 at 96 h [3] [µM]
1 | OC(Cn1cncn1)(Cn1cncn1)c1ccc(F)cc1F [FLUCONAZOLE] | 7.35 | 163 (≈ 50 µg/mL) |  | 
2 | CC(C)(C)NC(=O)[C@@H]1CN(Cc2cccnc2)CCN1C[C@@H](O)C[C@@H](Cc1ccccc1)C(=O)N[C@H]1c2ccccc2C[C@H]1O [INDINAVIR SULFATE] |  |  | 0.00881 | 
3 | CC(C)=C/C=C1\C[C@H](O)[C@@H]2O[C@]2(CC=C(C)C)C1=O [PESTALOFONE A] |  |  | 90.4 | > 200
4 | C=C(C)/C=C1/C(=C2\C[C@H](O)[C@@H]3O[C@]3(CC=C(C)C)[C@@H]2O)C=C(C)C[C@@]12C[C@H](O)[C@@H]1O[C@]1(CC=C(C)C)C2=O [PESTALOFONE B] |  |  | 64 | > 200
5 | C=C(C)/C=C1/C(=C2\C[C@H](O)[C@@H]3O[C@]3(CC=C(C)C)C2=O)C=C(C)C[C@@]12C[C@H](O)[C@@H]1O[C@]1(CC=C(C)C)C2=O [PESTALOFONE C] | 1.1 | 35.3 (≈ 18.4 µg/mL) |  | 
6 | COC(=O)c1cc(OC)cc2oc3c(CC(=O)[C@@]4(O)C[C@H](O)[C@@H]5O[C@]5(CC=C(C)C)[C@@H]4O)c(C)c(CC(C)=O)c(O)c3c(=O)c12 [PESTALOFONE E] | 0.9 | 31.2 (≈ 19.5 µg/mL) | 93.7 | > 200

Reference: ChEMBL document CHEMBL1140882, “Pestalofones A-E, bioactive cyclohexanone derivatives from the plant endophytic fungus Pestalotiopsis fici” (Bioorg Med Chem, 2009)
